Data from US10434086B2, “Combination therapies with curaxins” (Incuron, Inc., priority 2014, dated 2019).
Where two headings read alike, the source gives them in different places.

Tests used:
[1] = tested on: patient-derived PDA #13756 tumors; assay: PDA #13756 study: CBL0137/gemcitabine against patient-derived pancreatic tumor engrafts; assay type: in vivo, SCID mice
Text: (§1) Seventy and sixty female athymic nude mice were obtained for each H1975 Non-Small Cell Lung Cancer Xenograft study and split into treatment groups consisting of 10 animals per group (2 cages of 5 mice per cage).
(§2) Preparation and subcutaneous implantation of tumor pieces: HepG2 tumors (passage 2 for HepG2 study and passage 1 for HepG2 (sub-dose CLB0137) study) or Hep3B tumors (passage 1 for Hep3B study and passage 9 for Hep3B (sub-dose CLB0137) study) were propagated in athymic nude mice and harvested from euthanized mice when they reached ˜500-900 mm^3. PDA tumors (passage 6) were propagated in SCID mice (both flanks) and harvested from euthanized mice when they reached ˜600-700 mm^3 in size. Harvested tumors were transferred to a sterile Petri dish containing RPMI-10% FBS medium or D-PBS plus penicillin/streptomycin. Enough media was added to bathe the tumor in order to ensure the viability of the transplant material. Tumors were dissected into 2 mm×2 mm cubes using a sterile scalpel. Care was taken to make the pieces as uniform in size and shape as possible. Tumor pieces were implanted into recipient mice immediately after being prepared.
(§3) Tumor Size Measurements: Tumor size was measured by digital caliper in two dimensions (in mm): maximum length (l) and maximum width (w) taken perpendicular to one another. The measurements were used to calculate tumor volume according to the formula: tumor volume=(l×w2)/2 (w<l). The value obtained by this formula is also equal to the mass of the tumor in mg. Starting 2 days after tumor implantation, tumor measurements were made every 2-3 days prior to treatment initiation and then twice per week (e.g., on Day 1 (D1, the day of treatment initiation), D4, D8, D11, D15, D18, D22, D25, D29, D32, D36, D39, D43, D46, D50, D53 and D57). Tumor measurements were collected more frequently when tumor size approached the tumor size endpoint in order to prevent passing the endpoint between scheduled measurements.
(§4) Administration of test and control articles: Mice were administered the designated solutions when the mean tumor volume per treatment group was ˜45-200 mm^3.
The volume of dosing solution administered ip or iv was 8 ml/kg mouse body weight. Intravenous injections were performed via the tail vein. […]
Monitoring and Sample Collection: Twice daily, mice were monitored for mortality and morbidity for the duration of the experiment. […] All abnormal observations were documented and semi-quantitative scores were assigned for “body condition,” “posture,” and “activity.” Scores of 4, 3, 2, and 1 were assigned to normal conditions (4), and slightly (3), moderately (2) and severely (1) abnormal conditions, respectively. […]
Data analysis: For all study groups, maximum tumor growth inhibition was calculated for Day 11, 13, or 15 (Day X). […] For each tumor, relative tumor size was calculated relative to its size on Day 1 when treatment was initiated (i.e., fold tumor growth). […] Differences in tumor sizes between groups were determined using ANOVA analysis (GraphPad Prism 5 Software) where “*” refers to P=0.01-0.05 (significant), “**” refers to P=0.001-0.01 (very significant) and “***” refers to P<0.001 (extremely significant), Differences that were not statistically significant are indicated with “ns”. […] Tumor growth delay (T−C) was calculated by subtracting the median time for the control to reach the 1000 mm^3 size endpoint from that of the median time for the treated groups to reach the size endpoint.

A549 = A549 engraft experiment; assay type: in vivo; settings: one engraft experiment
H1975 NSCLC tumors = tested on: H1975 NSCLC tumors
Protocol: as §1
Description of H1975 NSCLS test material: Human H1975 NSCLC cell line (originally from ATCC) suspension was mixed 1:1 with Matrigel at 5×10^7 cells/ml (5×10^6 cells delivered per 100 μl injection) and kept on ice until inoculation.
For the NSCLC studies, solutions were prepared in two lots (once per 2 weeks) to ensure that fresh solutions were used throughout the study.
Preparation and inoculation of tumor cells: The night before inoculation, the Matrigel was placed on ice in the refrigerator to thaw. Prior to the start of cell harvesting, a supply of pipettes, tubes and tips were placed into the freezer so that they were cold when it was time to work with the Matrigel. One ml syringes and ½″ 23 G needles were also pre-chilled. This step was necessary to prevent premature solidification of Matrigel, which becomes solid at room temperature or higher (i.e., 37° C.).
H1975 cell suspension was prepared immediately before tumor inoculation in PBS. H1975 cells at passage 16 were harvested from forty 150 mm diameter dishes and diluted to 10×10^7 cells/ml in PBS (5.87 ml). Just prior to inoculation, using pre-chilled tips and tubes, 4.5 ml of this cell suspension was mixed with an equal volume of Matrigel (1:1) to a total volume of 9 mL Cell suspensions were kept on ice. The final concentration of cells was […].
Prior to inoculation of mice, the tumor cell-Matrigel mixture was carefully mixed by inverting the tube several times. A pre-chilled 1 nil syringe was filled with tumor cell-Matrigel mixture and then a pre-chilled ½″ 23 G capped needle was attached to the end of syringe to perform the injection. The closed filled syringe was inverted several times and then 100 μl of the cell-Matrigel mixture was inoculated subcutaneously into the left flank of each mouse.
For inoculation, mice were anesthetized with isoflurane (3-4% induction in 100% O2, 1-2% maintenance) to aid in proper subcutaneous inoculation.
as §3, §4
For all groups, Q4 d dosing was performed on D1, 05, 09, 013, 017, 021, 025, and 029 of the study. For groups that received only one drug rather than both, the vehicle for the drug that was not given was administered in its place as a mock administration. The volume of dosing solution administered ip or iv was 8 ml/kg mouse body weight. Intravenous injections were performed via the tail vein. Administration of drugs was done slowly without force on the syringe.
Monitoring and Sample Collection: Twice daily, mice were monitored for mortality and morbidity for the duration of the experiment. […] All abnormal observations were documented and semi-quantitative scores were assigned for “body condition,” “posture,” and “activity.” Scores of 4, 3, 2, and 1 were assigned to normal conditions (4), and slightly (3), moderately (2) and severely (1) abnormal conditions, respectively.

[2] = tested on: patient-derived PDA #13590 tumors; assay: PDA #13590 study: CBL0137/gemcitabine against patient-derived pancreatic tumor engrafts; assay type: in vivo, SCID mice
Text: as §1, §2, §3, §4
The volume of dosing solution administered ip or iv was 8 ml/kg mouse body weight. Intravenous injections were performed via the tail vein. Administration of drugs was done slowly without force on the syringe.
Monitoring and Sample Collection: Twice daily, mice were monitored for mortality and morbidity for the duration of the experiment. […] All abnormal observations were documented and semi-quantitative scores were assigned for “body condition,” “posture,” and “activity.” Scores of 4, 3, 2, and 1 were assigned to normal conditions (4), and slightly (3), moderately (2) and severely (1) abnormal conditions, respectively. Cages were taken to a laminar flow hood and opened in order to clearly assess mouse activity.
Data analysis: For all study groups, maximum tumor growth inhibition was calculated for Day 11, 13, or 15 (Day X). […] For each tumor, relative tumor size was calculated relative to its size on Day 1 when treatment was initiated (i.e., fold tumor growth). To calculate the maximum tumor growth inhibition for each tumor, the following equation was used: 100−(fold tumor growth drug-treated Day X/mean fold tumor growth vehicle-treated Day X)*100. Differences in tumor sizes between groups were determined using ANOVA analysis (GraphPad Prism 5 Software) where “*” refers to P=0.01-0.05 (significant), “**” refers to P=0.001-0.01 (very significant) and “***” refers to P<0.001 (extremely significant), Differences that were not statistically significant are indicated with “ns”. […] Tumor growth delay (T−C) was calculated by subtracting the median time for the control to reach the 1000 mm^3 size endpoint from that of the median time for the treated groups to reach the size endpoint.

Nc1ccn([C@@H]2O[C@H](CO)[C@@H](O)C2(F)F)c(=O)n1 [gemcitabine]
mean fold tumor growth ([1]; Day 15, gemcitabine 40 mg/kg ip Q4d, CBL0137 80 mg/kg iv 1×/wk, 4 weeks): 0.55 fold
tumor growth (in words) ([1]; Day 29): regression of all tumors
mean fold tumor growth ([1]; Day 54): 26.7 fold
individual tumors regressed or disappeared ([1]; by Day 15): 8/10
animal survival time ([1]; gemcitabine 40 mg/kg ip Q4d, CBL0137 80 mg/kg iv 1×/wk): 54 days
response of A549 in engraft experiment (in words) (A549): resistant to gemcitabine
median time to reach endpoint (H1975 NSCLC tumors; 2000 mm^3 size endpoint, vehicle 15.6 days): 47.8 days
individual tumors smaller than at start of treatment on Day 1 (H1975 NSCLC tumors; Day 5, vehicle 1/9): 9/10
tumor growth inhibition (H1975 NSCLC tumors; Day 15): 88.8%
mean fold tumor growth (H1975 NSCLC tumors; Day 15, vehicle 8.52-fold): 0.958 fold
tumor growth inhibition (H1975 NSCLC tumors; Day 22): 82.6%
mean fold tumor growth (H1975 NSCLC tumors; Day 22, CBL0137 70 mg/kg iv Q4d, gemcitabine 40 mg/kg ip Q4d, vehicle 15.2): 2.7 fold
mean fold tumor growth (H1975 NSCLC tumors; Day 39): 3.66 fold
delay in tumor growth (relative to vehicle treatment) (H1975 NSCLC tumors; mouse, in vivo): 32.2 days
signs of morbidity (H1975 NSCLC tumors; mouse, in vivo): no signs of morbidity
toxicity, cage-side observations (H1975 NSCLC tumors; mouse, in vivo): None of the cage-side observations were indicative of any toxicity
median survival time (MST) (H1975 NSCLC tumors; vehicle 16 days): 48.5 days
median survival time (MST) (H1975 NSCLC tumors; vehicle 22 days): 51.5 days
individual tumors showing regression or disappeared ([2]; Day 29, vehicle 1/9): 6/6
mean fold tumor growth ([2]; Day 57): 7.91±2.7 fold
mean fold tumor growth ([2]; Day 71): 12.98±3.9 fold
animals surviving to the end of the study ([2]; Day 88, vehicle 0/5): ¼
antitumor efficacy (in words) ([2]; PDA #13590): effective against PDA #13590 tumor growth as single agents
median survival time (MST) ([2]; vehicle 46 days, study end Day 88): 76.5 days
